This note sets out measurements from US20250144115A1, “AMIDE COMPOUND AS POTASSIUM CHANNEL REGULATOR, AND PREPARATION THEREFOR AND USE THEREOF” (Shanghai Zhimeng Biopharma, Inc., priority 2022, published 2025).

SMILES strings stand for the structures.

This assay concerns the target T1, KCNQ2 potassium channels (CHO-KCNQ2 cells) (Homo sapiens, UniProt O43526).
T1 construct: expressed in transfected cells; host or cells: CHO cells stably expressing KCNQ2 (G418 selection in the culture medium)
Nature of the assay: Potassium ion channel opener activity test (FDSS/μCELL detection, FluxOR thallium flux). The assay is classed as cell-based. The settings on record: 8 concentrations 0.045-100 μM; for EC50: 3 replicate wells; for Emax: ratio at 180 s, read-out: Maximum agonistic rate (%). The protocol:
Example A1 Potassium Ion Channel Opener Activity Test (FDSS/μ CELL Detection)
Cell preparation: CHO-KCNQ2 cells were cultured in a 175 cm^2 culture flask, and when the cell density grew to 60˜80%, the culture medium was removed and the cells were washed once with 7 mL PBS (Phosphate Buffered Saline), and then 3 mL of 0.25% Trypsin was added for digestion. After completion of digestion, 7 mL of culture medium (90% DMEM/F12+10% FBS+500 μg/mL G418) was added to neutralize, and centrifuged at 800 rpm for 3 min; the supernatant was aspirated, then 5 mL of culture medium was added to resuspend the cells, and the cells were counted.
Cell spreading: according to the cell counting results, the density was adjusted to 3×10^4 cells/well. After standing at room temperature for 30 minutes, the cells were placed in a CO2 incubator at 37° C. overnight, and incubated for 16-18 hours to reach a cell density of about 80%.
Fluorescent dye incubation: Cell culture solution was discarded, 80 μL/well of loading buffer was added and the cells were incubated for 60 minutes at room temperature and protected from light.
Compound incubation: Loading buffer was discarded, 80 μL/well of prepared compound solution was added, and the cells were incubated for 20 min at room temperature and protected from light.
Fluorescence data acquisition: Real-time fluorescence signal recording was performed using an FDSS/μCELL instrument with an excitation wavelength of 480 nm and an emission wavelength of 540 nm, and the signal was recorded once per second. 10 seconds of the baseline was recorded, then 20 μL/well of stimulation buffer was added, and the recording was continued until the end of 180 seconds.
20 mM stock solution of compound in DMSO was prepared, 10 μL of 20 mM compound stock solution was taken into 20 μL of DMSO solution, and a 3-fold serial dilution was performed to form 8 intermediate concentrations; then the intermediate concentrations of the compounds were taken respectively into test buffer, and a 200-fold dilution was performed to obtain the final concentration to be tested, and 80 μL was taken and added to the assay plate.
The highest test concentration was 100 μM, and there was a total of 8 concentrations, i.e., 100, 33.33, 11.11, 3.70, 1.23, 0.41, 0.137, 0.045 μM, respectively, with 3 replicate wells for each concentration.
The experimental data were analyzed by Excel 2007, GraphPad Prism 5.0 software, and the ratio of 180 s was counted to calculate the agonistic effect. The agonistic effect of the compound was calculated by the following equation:
• Environment: Temperature ˜25° C. • Reagent: FluxOR™ detection kit (Invitrogen, Cat #F0017) • The experimental data in the report must meet the following criteria: Z′ Factor>0.5 2. Results: See Table 1 for details, wherein a smaller EC50 indicates a higher activity of the corresponding compound.

T1 sequence (O43526 whole entry): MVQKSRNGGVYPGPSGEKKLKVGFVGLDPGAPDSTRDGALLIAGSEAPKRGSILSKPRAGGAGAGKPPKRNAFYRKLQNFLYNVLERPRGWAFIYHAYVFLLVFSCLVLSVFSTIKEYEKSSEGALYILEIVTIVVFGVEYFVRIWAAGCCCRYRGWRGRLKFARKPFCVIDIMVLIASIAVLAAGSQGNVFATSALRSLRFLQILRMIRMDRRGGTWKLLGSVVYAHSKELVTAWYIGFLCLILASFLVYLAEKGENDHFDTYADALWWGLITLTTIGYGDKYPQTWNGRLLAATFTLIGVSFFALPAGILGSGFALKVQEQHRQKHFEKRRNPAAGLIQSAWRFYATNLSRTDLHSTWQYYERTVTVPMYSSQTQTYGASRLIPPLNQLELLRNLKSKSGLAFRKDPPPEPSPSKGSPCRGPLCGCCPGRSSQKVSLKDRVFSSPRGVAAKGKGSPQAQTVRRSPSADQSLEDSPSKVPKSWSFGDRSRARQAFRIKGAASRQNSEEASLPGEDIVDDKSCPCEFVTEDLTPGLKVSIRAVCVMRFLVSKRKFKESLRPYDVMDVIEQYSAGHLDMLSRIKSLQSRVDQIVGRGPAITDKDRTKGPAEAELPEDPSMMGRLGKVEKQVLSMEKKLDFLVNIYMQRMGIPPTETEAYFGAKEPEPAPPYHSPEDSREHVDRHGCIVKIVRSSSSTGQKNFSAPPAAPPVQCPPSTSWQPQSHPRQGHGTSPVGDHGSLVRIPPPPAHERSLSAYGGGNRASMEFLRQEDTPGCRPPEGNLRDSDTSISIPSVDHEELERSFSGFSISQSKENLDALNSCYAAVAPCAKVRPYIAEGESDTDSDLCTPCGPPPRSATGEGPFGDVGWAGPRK

As to `Cc1cc(N2CCCCc3cc(C(F)(F)F)ccc32)cc(C)c1NC(=O)CC1(C)CC1` [Compound 3002], the midpoint of the response, the EC50, lay at 580 nM and the Emax came to 28.1%.
Take `Cc1cc(N2CCCOc3cc(C(F)(F)F)ccc32)cc(C)c1NC(=O)CC1(C)CC1` [Compound 3004]: the EC50 (as a rule, the concentration that produces a half-maximal response) was found to be 580 nM and the Emax stood at 17.7%.
As to `Cc1cc(N2CCCn3cccc3C2)cc(C)c1NC(=O)CC1(C)CC1` [Compound 3010], the EC50 was determined as 3700 nM and the Emax came out at 35.3%.
For the molecule `Cc1ccc2c(c1)CCCCN2c1cc(C)c(NC(=O)CC2(C)CC2)c(C)c1` [Compound 3007], it took 30 nM to reach a half-maximal effect (EC50) and the Emax is 41.5%.
With `Cc1ccc2c(c1)OCCCN2c1cc(C)c(NC(=O)CC2(C)CC2)c(C)c1` [Compound 3009], the EC50 stood at 71 nM and the Emax came to 36.1%.
For `Cc1cc(N2CCn3cccc3C2)cc(C)c1NC(=O)CC1(C)CC1` [Compound 3006], a half-maximal effect (EC50) was put at 270 nM and the Emax turned out to be 34.9%.
In the case of `Cc1cc(N2CCOc3cc(C(F)(F)F)ccc3C2)cc(C)c1NC(=O)CC1(C)CC1` [Compound 3003], the midpoint of the response, the EC50, lay at 18 nM and the Emax turned out to be 39.6%.
Take `Cc1cc(N2CCc3sc(F)cc3C2)cc(C)c1NC(=O)CC1(C)CC1` [Compound 3005]: the EC50 was found to be 110 nM and the Emax was found to be 46.7%.
Take `Cc1cc(N2CCSc3ccccc3C2)cc(C)c1NC(=O)CC1(C)CC1` [Compound 3011]: the EC50 is 4.3 nM and the Emax is 49.4%.
`Cc1cc(N2CCOc3cc(F)ccc3C2)cc(C)c1NC(=O)CC1(C)CC1` [Compound 3008]: the 50% effective concentration (EC50) is 17 nM and the Emax amounted to 40.9%.
Turning to `Cc1cc(N2CCc3cc(C(F)(F)F)ccc3C2)cc(C)c1NC(=O)CC1(C)CC1` [Compound 3001], a half-maximal response (EC50) required 86 nM and the Emax was determined as 45.6%.
